Experimental data reported in PMC10557740 (bioRxiv, 2023).

Assays:
[1] = biological target: HTR2A-A242S-EGFP-CT (humanized 5-hydroxytryptamine 2A receptor) (Mus musculus, UniProt P35363, A242S); test: radioligand saturation binding on cortical crude membranes
[2] = biological target: 5-hydroxytryptamine 2A receptor (HTR2A) (Mus musculus, UniProt P35363); type: binding
Sequence of 5-hydroxytryptamine 2A receptor (HTR2A) (P35363 whole entry): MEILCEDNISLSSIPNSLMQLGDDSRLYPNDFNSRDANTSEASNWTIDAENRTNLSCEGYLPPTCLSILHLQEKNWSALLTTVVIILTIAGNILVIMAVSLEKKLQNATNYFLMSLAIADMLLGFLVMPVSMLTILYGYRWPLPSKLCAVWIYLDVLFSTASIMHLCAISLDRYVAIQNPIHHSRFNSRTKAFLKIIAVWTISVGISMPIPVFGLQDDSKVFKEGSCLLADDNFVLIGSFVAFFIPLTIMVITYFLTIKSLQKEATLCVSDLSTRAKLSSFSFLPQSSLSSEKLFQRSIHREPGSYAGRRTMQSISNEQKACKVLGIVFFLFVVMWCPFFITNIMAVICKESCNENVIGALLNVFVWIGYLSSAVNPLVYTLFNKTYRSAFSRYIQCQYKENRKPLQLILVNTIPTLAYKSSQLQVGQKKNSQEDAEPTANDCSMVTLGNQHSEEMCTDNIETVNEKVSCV

Sequence of HTR2A-A242S-EGFP-CT (humanized 5-hydroxytryptamine 2A receptor) (P35363 1-452 A242S, other chains not shown): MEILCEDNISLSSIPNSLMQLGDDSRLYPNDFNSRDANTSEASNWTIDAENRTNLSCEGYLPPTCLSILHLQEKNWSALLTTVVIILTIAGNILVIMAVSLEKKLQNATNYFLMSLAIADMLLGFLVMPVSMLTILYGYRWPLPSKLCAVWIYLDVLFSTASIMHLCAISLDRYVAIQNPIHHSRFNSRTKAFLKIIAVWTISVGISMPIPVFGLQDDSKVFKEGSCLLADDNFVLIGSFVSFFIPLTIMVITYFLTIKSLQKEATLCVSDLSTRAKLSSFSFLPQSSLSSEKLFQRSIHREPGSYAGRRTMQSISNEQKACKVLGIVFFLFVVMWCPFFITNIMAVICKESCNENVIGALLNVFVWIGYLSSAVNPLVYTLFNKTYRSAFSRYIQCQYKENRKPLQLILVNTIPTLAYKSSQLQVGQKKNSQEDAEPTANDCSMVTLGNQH

## O=C(c1ccc(F)cc1)C1CCN(CCn2c(=O)[nH]c3ccccc3c2=O)CC1 [[3H]-ketanserin]
[1]
  Kd: 2.38 ± 1.48 nM
[2]
  Kd: 1.09 ± 0.324 nM
